Assay results taken from patent US11931321B2, “Compositions comprising a dendrimer-resveratrol complex and methods for making and using the same” (Concordia University, priority 2013, dated 2024).

Key:
[1] = Stability studies: HPLC of resveratrol remaining in aqueous solution; assay type: physicochemical
Protocol: The sample can then be analyzed via HPLC to determine the amount of resveratrol in the composition. This amount of resveratrol can be compared to the initially determined amount. This comparison amount can be used to determine the percent degradation.
Stability was determined by HPLC analysis of a 1% PAMAM-G4 amine dendrimer-resveratrol complex at 21° C. (ambient temperature), 37° C., and 4° C. […]

[2] = background statement; cited from earlier work
[3] = background statement; cited from earlier work; remark: listed apart in the source
[4] = Dissolution studies in simulated gastric and intestinal fluids; assay type: physicochemical
Protocol: The formulation was split into 2 equal aliquots and lyophilized. Simulated gastric and intestinal fluids were prepared, with the simulated gastric fluid consisting of HCl, NaCl, Pepsin, and water while the simulated intestinal fluid consisted of NaOH, KH2PO4, and water. […] This experiment was protected from light. At various time points, 0.5 mL aliquots of fluid were removed from the chambers and analyzed via HPLC. The volume removed was replaced with fresh simulated fluid.

## Oc1ccc(C=Cc2cc(O)cc(O)c2)cc1 [Resveratrol, 3,4′,5-trihydroxystilbene]
[1]; 4° C., day 29, aqueous solution
  drug remained intact: no drug remained
[1]; ambient temperature (21° C.), day 4, aqueous solution
  resveratrol remained intact: completely degraded
[2]
  aqueous solubility: 0.015 to 0.04 µg/mL
[3]
  half-life: 8 to 14 min
  metabolic stability: poor
  oral bioavailability: low
[4]; simulated gastric fluid
  time to dissolution (still dissolving at final time point): > 4.5 h
[4]; simulated intestinal fluid
  time to dissolution (still dissolving at final time point): > 4.5 h
